According to patent publication US20250041307A1, “Uses of Bicyclic Compounds for the Treatment of Diseases” (Athira Pharma, Inc., priority 2021, published 2025):

What was measured:
HGF/MET system = assay: Phospho-MET ELISA; format: cell-based; details: HEK293 cells; with 1 ng/mL recombinant HGF; 15 minutes; augmentation of MET phosphorylation (pMET ELISA)
Method in brief: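 Serum-starved (≥8 h) HEK293 cells treated with compound plus 1 ng/mL recombinant HGF for 15 min at 37° C in triplicate, then lysed in RIPA. Equal protein (50–100 μg, BCA-normalized) run in pMET sandwich ELISA, A450 read. Responses scaled 1–10 between 1 ng/mL and 10 ng/mL HGF means, using peak efficacy.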

[1] = Parallel artificial membrane permeability assay (PAMPA); format: in vitro ADME; details: PBS, room temperature for 5 hours, 200 uM in donor well
Method: Bioavailable drugs must permeate the cellular membranes of the lining of the digestive tract. To estimate the penetrability of exemplary compounds, the in vitro parallel artificial membrane permeability assay (PAMPA) was utilized.
Test compounds must have a standard curve in the final read plate to determine partitioned concentration of each drug. A 6-point standard curve was prepared for each compound from 0 to 200 μM in phosphate-buffered saline (PBS).
Test compound solution (300 μL in PBS) was added to the donor (bottom) well of the PAMPA plate in 5 replicates and PBS vehicle (200 μL) was added to the acceptor (top) wells of appropriate wells to match the loading of the donor plate. The bottom and top of the PAMPA plates were then sandwiched together. The PAMPA plates were then incubated at room temperature for 5 hours. After incubation, 150 μL of donor solution was added to a UV compatible plate containing the corresponding standard curve. 150 μL of acceptor well solution was added adjacent to the corresponding standard curve and donor well samples for that compound. The plate was then read using a UV plate reader.
Permeability and membrane retention were then calculated based on the following formulas:
where: • A=filter area (0.3 cm^2); • VD=donor well volume (0.3 mL); • VA=acceptor well volume (0.2 mL); • t=incubation time (seconds); • CA(t)=compound concentration in acceptor well at time t; • CD(t)=compound concentration in donor well at time t; and
where: • CD(t), VD, CA(t), and VA are as defined for equation 1, and • C0=initial concentration in donor well (200 uM).

[2] = In vitro stability in simulated gastric and intestinal fluids; format: in vitro ADME; details: 37° C.; for SGF, compound remaining after 4 hours: simulated gastric fluid pH 1.2, 5 μM; for SGF + Enz, compound remaining after 4 hours: simulated gastric fluid with 3.2 mg/ml pepsin; for SGF + Enz, compound remaining after 4 hours / SIF, compound remaining after 4 hours: 5 μM; for SIF, compound remaining after 4 hours: simulated intestinal fluid pH 6.8 with 10 mg/ml pancreatin
Method: Bioavailability can be estimated by compound stability when exposed to conditions in the body. As an initial assessment of stability properties in a variety of conditions present in animals, exemplary compounds were tested for stability in a battery of simulated body compartments. Compounds were tested for stability in the following solutions: simulated gastric fluid (SGF: 34.2 mM NaCl, pH 1.2), simulated gastric fluid with the digestive enzyme pepsin (SGF+Enzyme: SGF with 3.2 mg/ml pepsin), simulated intestinal fluid with the mixture of enzymes in porcine pancreatin (SIF+Enzyme: 28.7 mM NaH2PO4, 105.7 mM NaCl, pH 6.8, 10 mg/ml pancreatin), rat plasma, and human plasma.
Test compounds were incubated at a final concentration of 5 μM in the above solutions at 37° C. with samples removed at the following time points: 0, 1, 2, and 4 hours. Reactions were stopped and prepared for quantification by addition of excess quench solution containing an internal standard (acetonitrile, 200 ng/mL bucetin). Test compound and internal standard in each sample was quantified by LC-MS/MS, and after internal normalization to bucetin, test compound concentration was expressed as a percentage of concentration at the 0-hour time point. Stability in the relevant test solution was then determined by the percent remaining at the 4-hour time point.

Compound	Potency (HGF/MET system)	Papp at 5 h, 200 uM [1]	SGF, compound remaining after 4 hours [2]	SGF + Enz, compound remaining after 4 hours [2]	SIF, compound remaining after 4 hours [2]
CCC(C)CN1CC2N(C(=O)c3ccc(C(F)(F)F)cc3)CCC(=O)N2[C@@H](C)C1=O (stereo partly drawn) [Compound 1a]	++++ (++++ indicates maximum potency at or above 0.1 nM)	> 2 ×10⁻⁶ cm/s	++++ (++++ indicates 100% compound remaining after 4 hours)	++++ (++++ indicates 100% compound remaining after 4 hours)	++++ (++++ indicates 100% compound remaining after 4 hours)
CCC(C)CN1CC2N(C(=O)c3ccc(OC(F)F)cc3)CCC(=O)N2[C@@H](C)C1=O (stereo partly drawn) [Compound 2a]	++ (++ indicates maximum potency at or above 10 nM)	< 2 ×10⁻⁶ cm/s	++++ (++++ indicates 100% compound remaining after 4 hours)	+++ (+++ indicates 80-99% compound remaining after 4 hours)	++++ (++++ indicates 100% compound remaining after 4 hours)
CCC(C)CN1CC2N(Cc3ccc(C(F)(F)F)cc3)CCC(=O)N2[C@@H](C)C1=O (stereo partly drawn) [Compound 5a]	+ (+ indicates maximum potency at or above 100 nM)	< 2 ×10⁻⁶ cm/s	+++ (+++ indicates 80-99% compound remaining after 4 hours)	+ (+ indicates 20-39% compound remaining after 4 hours)	+++ (+++ indicates 80-99% compound remaining after 4 hours)
CCC(C)CN1CC2N(Cc3ccc(OC(F)F)cc3)CCC(=O)N2[C@@H](C)C1=O (stereo partly drawn) [Compound 6a]	+ (+ indicates maximum potency at or above 100 nM)	< 2 ×10⁻⁶ cm/s	+++ (+++ indicates 80-99% compound remaining after 4 hours)	+ (+ indicates 20-39% compound remaining after 4 hours)	++ (++ indicates 40-79% compound remaining after 4 hours)
CCC(C)CN1CC2N(Cc3ccc(O)nc3)CCC(=O)N2[C@@H](C)C1=O (stereo partly drawn) [Compound 7a]	++ (++ indicates maximum potency at or above 10 nM)	> 10 ×10⁻⁶ cm/s	++++ (++++ indicates 100% compound remaining after 4 hours)	+++ (+++ indicates 80-99% compound remaining after 4 hours)	++ (++ indicates 40-79% compound remaining after 4 hours)
CCC(C)CN1CC2N(C(=O)c3ccc(O)cc3)CCC(=O)N2[C@@H](C)C1=O (stereo partly drawn) [Compound 8a]	+ (+ indicates maximum potency at or above 100 nM)	> 10 ×10⁻⁶ cm/s	++++ (++++ indicates 100% compound remaining after 4 hours)	+++ (+++ indicates 80-99% compound remaining after 4 hours)	+++ (+++ indicates 80-99% compound remaining after 4 hours)
CCC(C)CN1CC2N(C(=O)c3ccc(F)cc3)CCC(=O)N2C(C)C1=O (stereo not drawn) [Compound 11, 1-(4-fluorobenzoyl)-6-methyl-8-(2-methylbutyl)hexahydro-4H-pyrazino[1,2-a]pyrimidine-4,7(6H)-dione]	+++ (+++ indicates maximum potency at or above 1 nM)	> 2 ×10⁻⁶ cm/s	+++ (+++ indicates 80-99% compound remaining after 4 hours)	+++ (+++ indicates 80-99% compound remaining after 4 hours)	++++ (++++ indicates 100% compound remaining after 4 hours)
CCC(C)CN1CC2N(C(=O)c3ccc(C(F)(F)F)c(Cl)c3)CCC(=O)N2C(C)C1=O (stereo not drawn) [Compound 12, 1-(3-chloro-4-(trifluoromethyl)benzoyl)-6-methyl-8-(2-methylbutyl)hexahydro-4H-pyrazino[1,2-a]pyrimidine-4,7(6H)-dione]	++ (++ indicates maximum potency at or above 10 nM)	< 2 ×10⁻⁶ cm/s	+++ (+++ indicates 80-99% compound remaining after 4 hours)	+++ (+++ indicates 80-99% compound remaining after 4 hours)	++ (++ indicates 40-79% compound remaining after 4 hours)
CCCCN1CC2N(C(=O)c3ccc(OC(F)F)cc3)CCC(=O)N2C(C)C1=O (stereo not drawn) [Compound 17]	+++ (+++ indicates maximum potency at or above 1 nM)	> 2 ×10⁻⁶ cm/s	+++ (+++ indicates 80-99% compound remaining after 4 hours)	+++ (+++ indicates 80-99% compound remaining after 4 hours)	+++ (+++ indicates 80-99% compound remaining after 4 hours)
CC1C(=O)N(CCC2CCCC2)CC2N(C(=O)c3ccc(C(F)(F)F)cc3)CCC(=O)N12 (stereo not drawn) [Compound 19]	+++ (+++ indicates maximum potency at or above 1 nM)	< 2 ×10⁻⁶ cm/s	+++ (+++ indicates 80-99% compound remaining after 4 hours)	++ (++ indicates 40-79% compound remaining after 4 hours)	+ (+ indicates 20-39% compound remaining after 4 hours)
CC1C(=O)N(CCC2CCC2)CC2N(C(=O)c3ccc(C(F)(F)F)cc3)CCC(=O)N12 (stereo not drawn) [Compound 20]	+ (+ indicates maximum potency at or above 100 nM)	< 2 ×10⁻⁶ cm/s	+++ (+++ indicates 80-99% compound remaining after 4 hours)	+++ (+++ indicates 80-99% compound remaining after 4 hours)	+++ (+++ indicates 80-99% compound remaining after 4 hours)
C=CCCN1CC2N(C(=O)c3ccc(C(F)(F)F)cc3)CCC(=O)N2C(C)C1=O (stereo not drawn) [Compound 22]	+++ (+++ indicates maximum potency at or above 1 nM)	< 2 ×10⁻⁶ cm/s	+++ (+++ indicates 80-99% compound remaining after 4 hours)	+++ (+++ indicates 80-99% compound remaining after 4 hours)	+++ (+++ indicates 80-99% compound remaining after 4 hours)
